Experimental data from PubChem BioAssay AID1259407 (Chemical Carcinogenesis Research Information System (CCRIS), 2018).
Active and inactive are the calls of the source. The rule behind the calls is not given here.

System: CCRIS mutagenicity, Ames/micronucleus/aberration tests
Assay: CCRIS mutagenicity studies
[1] = Test System: AMES SALMONELLA TYPHIMURIUM, Strain/Indicator: TA98, Metabolic Activation: NONE, Method: STANDARD PLATE
[2] = Test System: AMES SALMONELLA TYPHIMURIUM, Strain/Indicator: TA98, Metabolic Activation: RAT, LIVER, S-9, AROCLOR 1254, Method: STANDARD PLATE
[3] = Test System: AMES SALMONELLA TYPHIMURIUM, Strain/Indicator: TA100, Metabolic Activation: NONE, Method: STANDARD PLATE
[4] = Test System: AMES SALMONELLA TYPHIMURIUM, Strain/Indicator: TA100, Metabolic Activation: RAT, LIVER, S-9, AROCLOR 1254, Method: STANDARD PLATE

Measured: mutagenic call

O=NN1CCCC1
inactive: Test System: AMES SALMONELLA TYPHIMURIUM, Strain/Indicator: TA97, Metabolic Activation: NONE, Method: STANDARD PLATE inactive; negative | Test System: AMES SALMONELLA TYPHIMURIUM, Strain/Indicator: TA97, Metabolic Activation: RAT, LIVER, S-9, AROCLOR 1254, Method: STANDARD PLATE inactive; negative | [1] inactive; negative | [2] inactive; negative | [3] inactive; negative | Test System: AMES SALMONELLA TYPHIMURIUM, Strain/Indicator: TA100, Metabolic Activation: RABBIT, LIVER, S-9, Method: STANDARD PLATE inactive; negative | Test System: AMES SALMONELLA TYPHIMURIUM, Strain/Indicator: TA100, Metabolic Activation: RABBIT, LUNG, S-9, Method: STANDARD PLATE inactive; negative rabbit, lung, s-9 | [4] inactive; negative | Test System: AMES SALMONELLA TYPHIMURIUM, Strain/Indicator: TA100, Metabolic Activation: RAT, LIVER, S-9, Method: PREINCUBATION inactive; negative | Test System: AMES SALMONELLA TYPHIMURIUM, Strain/Indicator: TA100, Metabolic Activation: RAT, LIVER, S-9, Method: STANDARD PLATE inactive; negative | Test System: AMES SALMONELLA TYPHIMURIUM, Strain/Indicator: TA100, Metabolic Activation: RAT, LUNG, S-9, Method: STANDARD PLATE inactive; negative | Test System: AMES SALMONELLA TYPHIMURIUM, Strain/Indicator: TA1530, Metabolic Activation: RAT LIVER, CYTOSOL, ISONIAZID, Method: PREINCUBATION inactive; negative | Test System: AMES SALMONELLA TYPHIMURIUM, Strain/Indicator: TA1535, Metabolic Activation: RAT, LIVER, S-9, 3-METHYLCHOLANTHRENE, Method: STANDARD PLATE inactive; negative | Test System: AMES SALMONELLA TYPHIMURIUM, Strain/Indicator: TA2410, Metabolic Activation: NONE, Method: HOST-MEDIATED inactive; negative | Test System: AMES SALMONELLA TYPHIMURIUM, Strain/Indicator: TA2678, Metabolic Activation: NONE, Method: HOST-MEDIATED inactive; negative
active: Test System: AMES SALMONELLA TYPHIMURIUM, Strain/Indicator: TA100, Metabolic Activation: HAMSTER, LIVER, S-9, Method: PREINCUBATION active; positive | Test System: AMES SALMONELLA TYPHIMURIUM, Strain/Indicator: TA100, Metabolic Activation: HUMAN, LIVER, S-9, Method: PREINCUBATION active; positive | Test System: AMES SALMONELLA TYPHIMURIUM, Strain/Indicator: TA100, Metabolic Activation: PIG, LIVER, S-9, Method: PREINCUBATION active; positive | Test System: AMES SALMONELLA TYPHIMURIUM, Strain/Indicator: TA100, Metabolic Activation: RABBIT, NASAL, S-9, Method: STANDARD PLATE active; positive | Test System: AMES SALMONELLA TYPHIMURIUM, Strain/Indicator: TA100, Metabolic Activation: RAT, ESOPHAGUS, S-9, Method: PREINCUBATION active; positive | Test System: AMES SALMONELLA TYPHIMURIUM, Strain/Indicator: TA100, Metabolic Activation: RAT, FORESTOMACH, S-9, Method: PREINCUBATION active; positive | Test System: AMES SALMONELLA TYPHIMURIUM, Strain/Indicator: TA100, Metabolic Activation: RAT, GLANDULAR STOMACH, S-9, Method: PREINCUBATION active; positive | Test System: AMES SALMONELLA TYPHIMURIUM, Strain/Indicator: TA100, Metabolic Activation: RAT, LIVER, S-9, AROCLOR 1254, Method: PREINCUBATION active; positive | Test System: AMES SALMONELLA TYPHIMURIUM, Strain/Indicator: TA100, Metabolic Activation: RAT, NASAL, S-9, Method: STANDARD PLATE active; positive | Test System: AMES SALMONELLA TYPHIMURIUM, Strain/Indicator: TA102, Metabolic Activation: RAT, LIVER, S-9, AROCLOR 1254, Method: PREINCUBATION active; positive | Test System: AMES SALMONELLA TYPHIMURIUM, Strain/Indicator: TA104, Metabolic Activation: RAT, LIVER, S-9, AROCLOR 1254, Method: PREINCUBATION active; positive | Test System: AMES SALMONELLA TYPHIMURIUM, Strain/Indicator: TA1530, Metabolic Activation: RAT LIVER, MICROSOMES, ISONIAZID, Method: PREINCUBATION active; positive | Test System: AMES SALMONELLA TYPHIMURIUM, Strain/Indicator: TA1530, Metabolic Activation: RAT, LIVER, S-9, Method: STANDARD PLATE active; positive | Test System: AMES SALMONELLA TYPHIMURIUM, Strain/Indicator: TA1535, Metabolic Activation: RAT, LIVER, MICROSOMES, Method: PREINCUBATION active; positive | Test System: AMES SALMONELLA TYPHIMURIUM, Strain/Indicator: TA1535, Metabolic Activation: RAT, LIVER, S-9, AROCLOR 1254, Method: PREINCUBATION active; positive | Test System: AMES SALMONELLA TYPHIMURIUM, Strain/Indicator: TA1535, Metabolic Activation: RAT, LIVER, S-9, ETHANOL, Method: STANDARD PLATE active; positive | Test System: AMES SALMONELLA TYPHIMURIUM, Strain/Indicator: TA1535, Metabolic Activation: RAT, LIVER, S-9, PHENOBARBITAL, Method: STANDARD PLATE active; positive | Test System: AMES SALMONELLA TYPHIMURIUM, Strain/Indicator: TA1535, Metabolic Activation: RAT, LIVER, S-9, PHENOBARBITONE AND BETA-NAPHTHOFLAVONE, Method: PREINCUBATION active; positive | Test System: AMES SALMONELLA TYPHIMURIUM, Strain/Indicator: TA1535, Metabolic Activation: RAT, LIVER, S-9, PHENOBARBITONE AND BETA-NAPHTHOFLAVONE, Method: STANDARD PLATE active; positive | Test System: AMES SALMONELLA TYPHIMURIUM, Strain/Indicator: TA1535, Metabolic Activation: RAT, LIVER, S-9, PYRAZOLE, Method: PREINCUBATION active; positive | Test System: AMES SALMONELLA TYPHIMURIUM, Strain/Indicator: TA1535, Metabolic Activation: RAT, LIVER, S-9, PYRAZOLE, Method: STANDARD PLATE active; positive | Test System: AMES SALMONELLA TYPHIMURIUM, Strain/Indicator: TA1975, Metabolic Activation: RAT, LIVER, S-9, AROCLOR 1254, Method: PREINCUBATION active; positive | Test System: Ames Salmonella typhimurium, Strain/Indicator: YG7108, Metabolic Activation: Rat, Liver, S-9, Phenobarbital/beta-naphtoflavone, Method: Standard plate active; positive | Test System: Ames Salmonella typhimurium, Strain/Indicator: YG7108pin3ERb5, Metabolic Activation: None, Method: Standard plate active; positive | Test System: CHINESE HAMSTER OVARY, Strain/Indicator: CHO-K1-BH4 (HGPRT), Metabolic Activation: RAT, LIVER, S-9, AROCLOR, Method: SUSPENSION/PLATE active; positive | Test System: CHINESE HAMSTER V-79, Strain/Indicator: V-79/8-AZAGUANINE, Metabolic Activation: RAT, LIVER, S-15, PHENOBARBITAL, Method: STANDARD PLATE active; positive | Test System: UDS RODENT HEPATOCYTES, Strain/Indicator: THY INCORP (NON-S-PHASE), Method: AUTORADIOGRAPHY active; positive

Nc1cc(Cl)cc(Cl)c1O
inactive: Test System: AMES SALMONELLA TYPHIMURIUM, Strain/Indicator: TA98, Metabolic Activation: NONE, Method: PREINCUBATION inactive; negative | [1] inactive; negative | Test System: AMES SALMONELLA TYPHIMURIUM, Strain/Indicator: TA100, Metabolic Activation: NONE, Method: PREINCUBATION inactive; negative | [3] inactive; negative | Test System: CHINESE HAMSTER V-79, Strain/Indicator: V-79/6-THIOGUANINE, Metabolic Activation: NONE inactive; negative

O=NN(c1ccc([N+](=O)[O-])cc1)C1OC[C@@H](O)[C@@H](O)[C@H]1O (some centres not stated)
active: [3] active; positive

CC(=O)Nc1ccccc1C
inactive: [1] inactive; negative | [2] inactive; negative | [3] inactive; negative | [4] inactive; negative
